Laboratory results from ChEMBL document CHEMBL5143508, “Design, synthesis and biological evaluation of novel o-aminobenzamide derivatives as potential anti-gastric cancer agents in vitro and in vivo” (Eur J Med Chem, 2022).
Calls of active or inactive are those of the source. The rule behind the calls is not given here.

Assays:
HGC-27 [1] = assay: Induction of apoptosis in human HGC-27 cells assessed as reduction in caspase-9 level incubated for 48 hrs by Western blot analysis; type: functional, cell-based; conditions: dose 0.1-8 µM, DDE = dose-dependent effect
MGC-803 [2] = assay: Induction of apoptosis in human MGC-803 cells assessed as viable cells at 10 uM incubated for 48 hrs by annexin V FITC/propidium iodide staining based flow cytometry (reference value: 94.4 %); type: functional; conditions: read-out: Activity
MGC-803 [3] = assay: Induction of apoptosis in human MGC-803 cells assessed as necrotic cells at 10 uM incubated for 48 hrs by annexin V FITC/propidium iodide staining based flow cytometry (reference value: 1.06 %); type: functional
HGC-27 [4] = assay: Induction of cell cycle arrest in human HGC-27 cells assessed as downregulation of CDK1 expression incubated for 48 hrs by Western blot analysis; type: functional, cell-based; conditions: dose 0.1-8 µM
HGC-27 [5] = assay: Induction of cell cycle arrest in human HGC-27 cells assessed as upregulation of p21 expression at 0.5 to 8 uM incubated for 48 hrs by Western blot analysis; type: functional, cell-based; conditions: dose 0.5-8 µM
[6] = AUC (0 to t) in Sprague-Dawley rat at 100 mg/kg, po measured up to 24 hrs by LC-MS/MS analysis; type: ADME, organism-based; parameters: dose 100 mg/kg, time < 24 hrs, route po; conditions: in vivo
MGC-803 [7] = assay: Induction of morphological changes in human MGC-803 cells assessed as cytomembrane foaming incubated for 36 hrs by Giemsa staining based microscopic analysis; type: functional, cell-based; conditions: dose 2.5-20 µM
MGC-803 [8] = assay: Induction of apoptosis in human MGC-803 cells assessed as viable cells at 5 uM incubated for 48 hrs by annexin V FITC/propidium iodide staining based flow cytometry (reference value: 94.4 %); type: functional; conditions: read-out: Activity
HGC-27 [9] = assay: Induction of cell cycle arrest in human HGC-27 cells assessed as downregulation of cyclin B1 expression incubated for 48 hrs by Western blot analysis; type: functional, cell-based; conditions: dose 0.1-8 µM
HGC-27 [10] = assay: Induction of morphological changes in human HGC-27 cells assessed as cytomembrane foaming incubated for 36 hrs by Giemsa staining based microscopic analysis; type: functional, cell-based; conditions: dose 0.1-8 µM
MGC-803 [11] = assay: Induction of apoptosis in human MGC-803 cells assessed as early apoptotic cells at 10 uM incubated for 48 hrs by annexin V FITC/propidium iodide staining based flow cytometry (reference value: 0.42 %); type: functional
MGC-803 [12] = assay: Induction of apoptosis in human MGC-803 cells assessed as early apoptotic cells at 5 uM incubated for 48 hrs by annexin V FITC/propidium iodide staining based flow cytometry (reference value: 0.42 %); type: functional
MGC-803 [13] = assay: Anti-invasion activity against human MGC-803 cells assessed as inhibition of invasion incubated for 24 hrs by transwell invasion assay; type: functional, cell-based; conditions: dose 1.25-10 µM, DDE = dose-dependent effect
HGC-27 [14] = assay: Antiproliferative activity against human HGC-27 cells measured after 24 hrs by […]; type: functional, cell-based; conditions: HGC-27, 24 h
[15] = Cmax in Sprague-Dawley rat at 100 mg/kg, po measured up to 24 hrs by LC-MS/MS analysis; type: ADME, organism-based; parameters: dose 100 mg/kg, time < 24 hrs, route po; conditions: in vivo
MGC-803 [16] = assay: Inhibition of cell migration in human MGC-803 cells measured after 24 hrs by wound healing assay; type: functional, cell-based; conditions: dose 1.25-10 µM, DDE = dose-dependent effect
HGC-27 [17] = assay: Anti-invasion activity against human HGC-27 cells assessed as inhibition of invasion incubated for 24 hrs by transwell invasion assay; type: functional, cell-based; conditions: dose 0.05-2 µM, DDE = dose-dependent effect
[18] = Tmax in Sprague-Dawley rat at 100 mg/kg, po measured up to 24 hrs by LC-MS/MS analysis; type: ADME, organism-based; conditions: in vivo
HGC-27 [19] = assay: Induction of apoptosis in human HGC-27 cells assessed as reduction in caspase-3 level incubated for 48 hrs by Western blot analysis; type: functional, cell-based; conditions: dose 0.1-8 µM, DDE = dose-dependent effect
HGC-27 [20] = assay: Induction of morphological changes in human HGC-27 cells assessed as chromatin condensation incubated for 36 hrs by Giemsa staining based microscopic analysis; type: functional, cell-based; conditions: dose 0.1-8 µM
MGC-803 [21] = assay: Induction of apoptosis in human MGC-803 cells assessed as necrotic cells at 5 uM incubated for 48 hrs by annexin V FITC/propidium iodide staining based flow cytometry (reference value: 1.06 %); type: functional
[22] = Half life in Sprague-Dawley rat at 100 mg/kg, po measured up to 24 hrs by LC-MS/MS analysis; type: ADME, organism-based; conditions: in vivo
HGC-27 [23] = assay: Induction of cell cycle arrest in human HGC-27 cells assessed as downregulation of CDK2 expression incubated for 48 hrs by Western blot analysis; type: functional, cell-based; conditions: dose 0.1-8 µM
MGC-803 [24] = assay: Induction of apoptosis in human MGC-803 cells assessed as late apoptotic cells at 10 uM incubated for 48 hrs by annexin V FITC/propidium iodide staining based flow cytometry (reference value: 4.07 %); type: functional
MGC-803 [25] = assay: Induction of morphological changes in human MGC-803 cells assessed as chromatin condensation incubated for 36 hrs by Giemsa staining based microscopic analysis; type: functional, cell-based; conditions: dose 2.5-20 µM
HGC-27 [26] = assay: Induction of cell cycle arrest in human HGC-27 cells assessed as downregulation of cyclin A expression incubated for 48 hrs by Western blot analysis; type: functional, cell-based; conditions: dose 0.1-8 µM
HGC-27 [27] = assay: Inhibition of cell migration in human HGC-27 cells measured after 24 hrs by wound healing assay; type: functional, cell-based; conditions: dose 0.05-2 µM, DDE = dose-dependent effect
MGC-803 [28] = assay: Induction of apoptosis in human MGC-803 cells assessed as late apoptotic cells at 5 uM incubated for 48 hrs by annexin V FITC/propidium iodide staining based flow cytometry (reference value: 4.07 %); type: functional
[29] = MRT (0 to t) in Sprague-Dawley rat at 100 mg/kg, po measured up to 24 hrs by LC-MS/MS analysis; type: ADME, organism-based; conditions: in vivo
HGC-27 [30] = assay: Induction of apoptosis in human HGC-27 cells assessed as reduction in Bcl-2 level incubated for 48 hrs by Western blot analysis; type: functional, cell-based; conditions: dose 0.1-8 µM, DDE = dose-dependent effect
MGC-803 [31] = assay: Induction of cell cycle arrest in human MGC-803 cells assessed as reduction in accumulation of cells at G0/G1 phase at 5 to 20 uM incubated for 24 hrs by PI staining based flow cytometry analysis; type: functional; conditions: dose 5-20 µM
MGC-803 [32] = assay: Induction of apoptosis in human MGC-803 cells assessed as necrotic cells at 20 uM incubated for 48 hrs by annexin V FITC/propidium iodide staining based flow cytometry (reference value: 1.06 %); type: functional
HGC-27 [33] = assay: Induction of apoptosis in human HGC-27 cells assessed as upregulation in Bax expression at 0.1 to 1.6 uM incubated for 48 hrs by Western blot analysis; type: functional, cell-based; conditions: dose 0.1-1.6 µM
HGC-27 [34] = assay: Induction of apoptosis in human HGC-27 cells assessed as late apoptotic cells at 1.6 uM incubated for 48 hrs by annexin V FITC/propidium iodide staining based flow cytometry (reference value: 5.14 %); type: functional
HGC-27 [35] = assay: In vivo induction of apoptosis in human HGC-27 cells xenografted in BALB/c mouse assessed as increase in cleaved caspase-3 expression at 75 to 150 mg/kg , po bid administered for 19 days and measured by immunohistochemical analysis; type: functional, organism-based; conditions: dose 75-150 mg/kg, time 19.0 day
[36] = Acute toxicity in Kunming mouse assessed as effect on kidney pathology at 1000 mg/kg, po measured after 14 days; type: organism-based; conditions: in vivo, 336 h, time 14 day
HGC-27 [37] = assay: Induction of apoptosis in human HGC-27 cells assessed as viable cells at 1.6 uM incubated for 48 hrs by annexin V FITC/propidium iodide staining based flow cytometry (reference value: 93.0 %); type: functional; conditions: read-out: Activity

SMILES | Activity (HGC-27 [1]) | viability at 10 µM (MGC-803 [2]) [%] | Activity (MGC-803 [3]) [%] | Activity (HGC-27 [4]) | AUC(0-t) at 24 h [6] [ng·h/mL] | Activity (MGC-803 [7]) | viability at 5 µM (MGC-803 [8]) [%] | Activity (HGC-27 [9]) | Activity (HGC-27 [10]) | Activity (MGC-803 [11]) [%] | Activity (MGC-803 [12]) [%] | Activity (MGC-803 [13]) | IC50 (HGC-27 [14]) [nM] | Cmax [15] [ng/mL] | inhibition (MGC-803 [16]) | Activity (HGC-27 [17]) | Tmax [18] [h] | Activity (HGC-27 [19]) | Activity (HGC-27 [20]) | Activity (MGC-803 [21]) [%] | other results
O=C(NCc1ccc(NC(=O)c2ccccc2N2CCCC2)cc1)OCc1cccnc1 | Dde | 59.4 | 3.27 | Active | 4720 | Active | 65 | Active | Active | 19.1 | 15.5 | Dde | 1840 | 4090 | Dde | Dde | 0.5 | Dde | Active | 2.47 | Activity (HGC-27 [5]): Active; half-life [22]: 1.56 h; Activity (HGC-27 [23]): Active; Activity (MGC-803 [24]): 18.2%; Activity (MGC-803 [25]): Active; Activity (HGC-27 [26]): Active; inhibition (HGC-27 [27]): Dde; Activity (MGC-803 [28]): 17%; MRT last at 24 h [29]: 1.88 h; Activity (HGC-27 [30]): Dde
O=C(NCc1ccc(NC(=O)c2cc(F)ccc2N2CCCC2)cc1)OCc1cccnc1 | Dde | 82 | 1.84 | Active | 7310 | Active | 81.1 | Active | Active | 7.31 | 3.23 | Dde | 280 | 3980 | Dde | Dde | 1.2 | Dde | Active | 5.22 | Activity (MGC-803 [31]): Active; Activity (MGC-803 [32]): 2.74%; Activity (HGC-27 [33]): Active; Activity (HGC-27 [34]): 69.4%; Activity (HGC-27 [35]): Active; half-life [22]: 2.5 h; Activity (HGC-27 [23]): Active; Activity [36]: Non-Toxic; viability at 1.6 µM (HGC-27 [37]): 13.4%; Activity (MGC-803 [24]): 8.86%; Activity (MGC-803 [25]): Active; Activity (HGC-27 [26]): Active; inhibition (HGC-27 [27]): Dde; Activity (MGC-803 [28]): 10.4%; MRT last at 24 h [29]: 4.25 h; Activity (HGC-27 [30]): Dde
